Results as given in patent publication US11203592B2, “Inhibitors of indoleamine 2,3-dioxygenase and methods of their use” (BRISTOL-MYERS SQUIBB COMPANY, priority 2017, dated 2021).
Counter-ions that a name gives are not always drawn.

Target: T1, indoleamine 2,3-dioxygenase (IDO) (Homo sapiens, UniProt P14902)
T1 construct: endogenous in cells; host or cells: HeLa (ATCC CCL-2), induced with IFNγ at 25 ng/mL
Assay: HeLa cell-based indoleamine 2,3-dioxygenase (IDO) assay, kynurenine production
Settings: HeLa cells, IFNγ 25 ng/mL, 48 hour incubation, kynurenine absorbance at 480 nm
Method: Assessment of Inhibitor Activity in HeLa Cell-Based Indoleamine 2,3-dioxygenase (IDO) Assay:
HeLa (ATCC® CCL-2) cells were obtained from the ATCC® and cultured in Dulbecco's Modified Eagle Medium supplemented with 4.5 g/L glucose, […] (#10-013-CV, Corning), 2 mM L-alanyl-L-glutamine dipeptide (#35050-061, Gibco), 100U/mL penicillin, 100 μg/mL streptomycin (#SV30010, HyClone) and 10% fetal bovine serum (#SH30071.03 HyClone). Cells were maintained in a humidified incubator at 37° C. in 5% CO2.
IDO activity was assessed as a function of kynurenine production as follows: HeLa cells were seeded in a 96-well culture plate at a density of 5,000 cells/well and allowed to equilibrate overnight. After 24 hours, the media was aspirated and replaced with media containing IFNγ (#285-IF/CF, R&D Systems) at a final concentration of 25 ng/mL. A serial dilution of each test compound was added to the cells in a total volume of 200 μL of culture medium. After a further 48 hour incubation, 170 μL of supernatant was transferred from each well to a fresh 96-well plate. 12.1 μL of 6.1N trichloroacetic acid (#T0699, Sigma-Aldrich) was added to each well and mixed, followed by incubation at 65° C. for 20 minutes to hydrolyze N-formylkynurenine, the product of indoleamine 2,3-dioxygenase, to kynurenine. The reaction mixture was then centrifuged for 10 mins at 500×g to sediment the precipitate. 100 μL of the supernatant was transferred from each well to a fresh 96-well plate. 100 μl of 2% (w/v) p-dimethylaminobenzaldehyde (#15647-7, Sigma-Aldrich) in acetic acid (#A6283, Sigma-Aldrich) was added to each well mixed and incubated at room temperature for 20 inns. Kynurenine concentrations were determined by measuring absorbance at 480 nm and calibrating against an L-kynurenine (#K8625, Sigma-Aldrich) standard curve using a SPECTRAMAX® M2e microplate reader (Molecular Devices). The percentage activity at each inhibitor concentration was determined and IC50 values assessed using nonlinear regression.

T1 sequence (P14902 whole entry): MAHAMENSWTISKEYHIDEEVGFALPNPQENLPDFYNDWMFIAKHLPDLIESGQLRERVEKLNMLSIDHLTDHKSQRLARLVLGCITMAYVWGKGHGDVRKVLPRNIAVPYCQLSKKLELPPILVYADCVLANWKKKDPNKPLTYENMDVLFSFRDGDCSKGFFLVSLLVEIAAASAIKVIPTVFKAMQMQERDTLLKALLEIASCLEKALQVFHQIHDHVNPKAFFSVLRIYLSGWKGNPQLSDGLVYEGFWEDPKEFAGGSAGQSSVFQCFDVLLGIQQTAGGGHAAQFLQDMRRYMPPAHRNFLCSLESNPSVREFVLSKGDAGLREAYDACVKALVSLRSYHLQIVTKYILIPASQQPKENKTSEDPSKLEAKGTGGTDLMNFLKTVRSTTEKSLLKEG

**Q.** For `CC(C(=O)Nc1ccc(Cl)cc1)[C@H]1CC[C@]2(CC1)OCc1ccccc12` (mixture of isomers) [Example 5, N-(4-Chlorophenyl)-2-((1s,4s)-3′H-spiro[cyclohexane-1,1′-isobenzofuran]-4-yl)propanamide], which IC50 is on record?
**A.** 92 nM

**Q.** For `CC(NC(=O)C12CC3CC(CC(C3)C1)C2)[C@H]1CC[C@]2(CC1)OCc1ccccc12` (mixture of isomers) [Example 12, rac-(1R,3S)—N-(1-((1S,4s)-3′H-spiro[cyclohexane-1,1′-isobenzofuran]-4-yl)ethyl)adamantane-1-carboxamide], which IC50 is on record?
**A.** 1440 nM

**Q.** For `CC(C(=O)NC12CC3CC(CC(C3)C1)C2)[C@H]1CC[C@@]2(CC1)OCc1ccccc12` (mixture of isomers) [Example 28, rac-N—((1R,3S)-Adamantan-1-yl)-2-((1R,4r)-3′H-spiro[cyclohexane-1,1′-isobenzofuran]-4-yl)propanamide], which IC50 is on record?
**A.** 201 nM

**Q.** For `O=C(C[C@H]1CC[C@@]2(CC1)OCc1ccccc12)NC12CC3CC(CC(C3)C1)C2` [Example 2, N-((1R,3S)-Adamantan-1-yl)-2-((1R,4r)-3′H-spiro[cyclohexane-1,1′-isobenzofuran]-4-yl)acetamide], which IC50 is on record?
**A.** 189 nM

**Q.** Which IC50 does the source give for `CC(NC(=O)C12CCC(Cl)(CC1)CC2)[C@H]1CC[C@]2(CC1)OCc1ccccc12` (mixture of isomers) [Example 13, rac-N-(1-((1s,4s)-3′H-Spiro[cyclohexane-1,1′-isobenzofuran]-4-yl)ethyl)-4-chlorobicyclo[2.2.2]octane-1-carboxamide] here?
**A.** 628 nM

**Q.** `CC(C(=O)Nc1ccc(Cl)cc1)[C@H]1CC[C@@]2(CC1)OCc1ccccc12` (mixture of isomers) [Example 4, rac-N-(4-Chlorophenyl)-2-((1r,4r)-3′H-spiro[cyclohexane-1,1′-isobenzofuran]-4-yl)propanamide] was tested. Which IC50 did it give?
**A.** 50 nM

Target: T2, human IDO1 (Homo sapiens, UniProt P14902)
T2 construct: expressed in transfected cells
T2 sequence (P14902 whole entry): as above
Assay: human IDO1/HEK293 cell IDO inhibition assay
Type: cell-based
Settings: HEK293 cells stably expressing human IDO1, 20 hours incubation, absorbance at 490 nm; read-out: IDO1 HEK Human IC50
Method: HEK293 cells were transfected with a pCDNA-based mammalian expression vector harboring human IDO1 cDNA (NM 002164.2) by electroporation. They were cultured in medium (DMEM with 10% FBS) containing 1 mg/ml G418 for two weeks. Clones of HEK293 cells that stably expressed human IDO1 protein were selected and expanded for IDO inhibition assay.
The human IDO1/HEK293 cells were seeded at 10,000 cells per 50 μL per well with RPMI/phenol red free media contains 10% FBS in a 384-well black wall clear bottom tissue culture plate (Matrix Technologies LLC) 100 nL of certain concentration of compound was then added to each well using ECHO liquid handling systems. The cells were incubated for 20 hours in 37° C. incubator with 5% CO2.
The compound treatments were stopped by adding trichloroacetic acid (Sigma-Aldrich) to a final concentration at 0.2%. The cell plate was further incubated at 50° C. for 30 minute. The equal volume supernatant (20 μL) and 0.2% (w/v) Ehrlich reagent (4-dimethylaminobenzaldehyde, Sigma-Aldrich) in glacial acetic acid were mixed in a new clear bottom 384-well plate. This plate was then incubated at room temperature for 30 minute. The absorbance at 490 nm was measured on Envision plate reader.
Compound IC50 values were calculated using the counts of 500 nM of a reference standard treatment as one hundred percent inhibition, and counts of no compound but DMSO treatment as zero percent inhibition.

**Q.** For `Cc1cccc2c1[C@]1(CC[C@H](C(C)C(=O)NC3(C)CCCCC3)CC1)OC2` (mixture of isomers) [Example 10, rac-2-((1s,4s)-7′-methyl-3′H-spiro[cyclohexane-1,1′-isobenzofuran]-4-yl)-N-(1-methylcyclohexyl)propanamide], which IC50 is on record?
**A.** 980 nM

**Q.** Which IC50 does the source give for `Cc1cccc2c1[C@]1(CC[C@H](C(C)C(=O)NC34CC5CC(CC(C5)C3)C4)CC1)OC2` (mixture of isomers) [Example 9, rac-N-((1R,3S)-adamantan-1-yl)-2-((1S,4s)-7′-methyl-3′H-spiro[cyclohexane-1,1′-isobenzofuran]-4-yl)propanamide] here?
**A.** 617 nM

**Q.** With `C[C@@H](C(=O)Nc1ccc(Cl)cc1)[C@H]1CC[C@@]2(CC1)COc1ccccc12` [Example 16, (R)—N-(4-Chlorophenyl)-2-((1′R,4′r)-2H-spiro[benzofuran-3,1′-cyclohexan]-4′-yl)propanamide] as the molecule, how does the IC50 read?
**A.** 8 nM

**Q.** Which IC50 does the source give for `CC(NC(=O)c1ccc(C#N)cc1)[C@H]1CC[C@]2(CC1)COc1ccccc12` (mixture of isomers) [Example 27, rac-N-(1-((1′s,4′s)-2H-Spiro[benzofuran-3,1′-cyclohexan]-4′-yl)ethyl)-4-cyanobenzamide] here?
**A.** 93 nM

**Q.** With `C[C@H](NC(=O)c1ccc(Cl)cc1)[C@H]1CC[C@@]2(CC1)COc1ccccc12` [Example 19, N—((S)-1-((1'S,4′r)-2H-Spiro[benzofuran-3,1′-cyclohexan]-4′-yl)ethyl)-4-chlorobenzamide] as the molecule, how does the IC50 read?
**A.** 914 nM

**Q.** With `CC(c1nc2ncc(Cl)cc2[nH]1)[C@H]1CC[C@@]2(CC1)COc1ccccc12` (mixture of isomers) [Example 24, rac-2-(1-((1′r,4′r)-2H-Spiro[benzofuran-3,1′-cyclohexan]-4′-yl)ethyl)-6-chloro-1H-imidazo[4,5-b]pyridine TFA Salt] as the molecule, how does the IC50 read?
**A.** 117 nM

**Q.** For `CC(C(=O)Nc1ccc(Cl)cc1)[C@H]1CC[C@@]2(CC1)COc1ccccc12` (mixture of isomers) [Example 14, rac-N-(4-Chlorophenyl)-2-((1′r,4′r)-2H-spiro[benzofuran-3,1′-cyclohexan]-4′-yl)propanamide], which IC50 is on record?
**A.** 5 nM

**Q.** With `C[C@@H](c1nc2ncc(Cl)cc2[nH]1)[C@H]1CC[C@@]2(CC1)COc1ccccc12` [Example 25, 2-((R)-1-((3R,4′r)-2H-spiro[benzofuran-3,1′-cyclohexan]-4′-yl)ethyl)-6-chloro-1H-imidazo[4,5-b]pyridine] as the molecule, how does the IC50 read?
**A.** 794 nM

**Q.** `CC(NC(=O)c1ccc(Cl)cc1)[C@H]1CC[C@]2(CC1)COc1ccccc12` (mixture of isomers) [Example 21, rac-N-(1-((1′s,4′s)-2H-Spiro[benzofuran-3,1′-cyclohexan]-4′-yl)ethyl)-4-chlorobenzamide] was tested. Which IC50 did it give?
**A.** 59 nM

**Q.** How did the IC50 turn out when `C[C@H](c1nc2ncc(Cl)cc2[nH]1)[C@H]1CC[C@@]2(CC1)COc1ccccc12` [Example 26, 2-((S)-1-((3S,4′r)-2H-spiro[benzofuran-3,1′-cyclohexan]-4′-yl)ethyl)-6-chloro-1H-imidazo[4,5-b]pyridine] was run?
**A.** 43 nM

**Q.** Which IC50 does the source give for `C[C@@H](NC(=O)c1ccc(Cl)cc1)[C@H]1CC[C@@]2(CC1)COc1ccccc12` [Example 18, N—((R)-1-((1′R,4′r)-2H-Spiro[benzofuran-3,1′-cyclohexan]-4′-yl)ethyl)-4-chlorobenzamide] here?
**A.** 9 nM

**Q.** Which IC50 does the source give for `C[C@@H](c1nc2ccc(Cl)cc2[nH]1)[C@H]1CC[C@@]2(CC1)COc1ccccc12` [Example 22, 2-((R)-1-((3R,4′r)-2H-spiro[benzofuran-3,1′-cyclohexan]-4′-yl)ethyl)-6-chloro-1H-benzo[d]imidazole] here?
**A.** 142 nM

**Q.** With `Cc1cccc2c1[C@]1(CC[C@@H](C(C)C(=O)Nc3ccc(Cl)cc3)CC1)OC2` (mixture of isomers) [Example 7, rac-N-(4-Chlorophenyl)-2-((1r,4r)-7′-methyl-3′H-spiro[cyclohexane-1,1′-isobenzofuran]-4-yl)propanamide] as the molecule, how does the IC50 read?
**A.** 37 nM

**Q.** Which IC50 does the source give for `CC(C(=O)Nc1ccc(Cl)cc1)[C@H]1CC[C@]2(CC1)COc1ccccc12` (mixture of isomers) [Example 20, rac-N-(4-Chlorophenyl)-2-((1′s,4′s)-2H-spiro[benzofuran-3,1′-cyclohexan]-4′-yl)propanamide] here?
**A.** 61 nM

**Q.** Which IC50 does the source give for `Cc1cccc2c1[C@]1(CC[C@H](C(C)C(=O)Nc3ccc(Cl)cc3)CC1)OC2` (mixture of isomers) [Example 8, rac-N-(4-chlorophenyl)-2-((1s,4s)-7′-methyl-3′H-spiro[cyclohexane-1,1′-isobenzofuran]-4-yl)propanamide] here?
**A.** 24 nM

**Q.** For `Cc1cccc2c1OC(CO)[C@]21CC[C@@H](CC(=O)Nc2ccc(Cl)cc2)CC1` (mixture of isomers) [Example 30, rac-N-(4-Chlorophenyl)-2-((1′s,2R,4′S)-2-(hydroxymethyl)-7-methyl-2H-spiro[benzofuran-3,1′-cyclohexan]-4′-yl)acetamide], which IC50 is on record?
**A.** 363 nM

**Q.** How did the IC50 turn out when `C[C@H](c1nc2ccc(Cl)cc2[nH]1)[C@H]1CC[C@@]2(CC1)COc1ccccc12` [Example 23, 2-((S)-1-((3S,4′r)-2H-spiro[benzofuran-3,1′-cyclohexan]-4′-yl)ethyl)-6-chloro-1H-benzo[d]imidazole] was run?
**A.** 254 nM

**Q.** How did the IC50 turn out when `Cc1cccc2c1OC(CO)[C@]21CC[C@H](CC(=O)Nc2ccc(Cl)cc2)CC1` (mixture of isomers) [Example 29, rac-N-(4-Chlorophenyl)-2-((1′r,2R,4′R)-2-(hydroxymethyl)-7-methyl-2H-spiro[benzofuran-3,1′-cyclohexan]-4′-yl)acetamide] was run?
**A.** 68 nM

**Q.** How did the IC50 turn out when `CC(NC(=O)c1ccc(Cl)cc1)[C@H]1CC[C@@]2(CC1)COc1ccccc12` (mixture of isomers) [Example 17, rac-N-(1-((1′r,4′r)-2H-Spiro[benzofuran-3,1′-cyclohexan]-4′-yl)ethyl)-4-chlorobenzamide] was run?
**A.** 59 nM
